Experimental data taken from US20170368082A1, “FORMULATIONS OF BRINCIDOFOVIR” (priority 2016, published 2017).
Where two headings read alike, the source gives them in different places.

Experiments:
[1] = 28-day study toxicokinetics of brincidofovir and CDV in plasma; type: in vivo, Sprague-Dawley CD rats; conditions: plasma brincidofovir; for AUC(0-t) / Cmax: iv
Method: Blood samples were obtained for the determination of plasma concentrations of brincidofovir and the brincidofovir metabolite, cidofovir.
Approximately 0.40 mL of whole blood was obtained via the tail vein from each animal at each time point. Animals were not fasted prior to blood collection. Blood was collected into tubes containing K2EDTA anticoagulant and placed on wet ice in an upright position. Plasma was separated by centrifugation (for 10 minutes at approximately 2000 g, at approximately 2-8° C.). Approximately 0.150 mL of plasma was transferred into a single cryotube appropriately labeled as to study number, animal number, time point, date of sampling and sample type. Remaining plasma was transferred into a second cryotube and retained as a backup sample. Plasma was obtained and frozen at approximately −80±10° C. within approximately 2 hours after collection of each blood sample until analysis. Animals were euthanized (CO2 inhalation) after the final blood collection.
Bioanalytical samples were analyzed using a validated liquid chromatographic-triple quadruple mass spectrometric (LC-MS/MS) assay at Pyxant Labs.
Upon receipt of the plasma concentration data, noncompartmental toxicokinetic analysis was performed by Nuventra, Inc. Durham, N.C.

[2] = IV BCV single ascending dose study in healthy subjects: safety; type: in vivo, human
Method: Plasma PK samples were collected over 7 days and assayed by HPLC-MS. Plasma BCV PK parameters were determined by non-compartmental analysis and dose proportionality was assessed. Safety assessments were collected over 14 days.

[3] = both sexes, Sprague-Dawley CD, rat, in vivo, 4 mg/kg, Day 1, 4 mg/kg, combined male and female, Mean
[4] = both sexes, Sprague-Dawley CD, rat, in vivo, 4 mg/kg, Day 1, 4 mg/kg, combined male and female, Median
[5] = both sexes, Sprague-Dawley CD, rat, in vivo, 15 mg/kg, Day 1, 15 mg/kg, combined male and female, Mean
[6] = both sexes, Sprague-Dawley CD, rat, in vivo, 15 mg/kg, Day 1, 15 mg/kg, combined male and female, Median
[7] = Day 29, 1 mg/kg, combined male and female rats, mean
[8] = Day 29, 4 mg/kg, combined male and female rats, mean
[9] = Day 29, 15 mg/kg, combined male and female rats, mean
[10] = Day 1, 1 mg/kg, combined male and female, Median
[11] = Day 1, 4 mg/kg, combined male and female, Mean
[12] = Day 1, 4 mg/kg, combined male and female, Median
[13] = Day 1, 15 mg/kg, combined male and female, Mean
[14] = Day 1, 15 mg/kg, combined male and female, Median
[15] = Cohort 1, BCV 10 mg 2 h infusion, n = 6
[16] = Cohort 2, BCV 25 mg 2 h infusion, n = 6
[17] = Cohort 3, BCV 50 mg 2 h infusion, n = 9
[18] = Cohort 4, BCV 50 mg 4 h infusion, n = 9

Structure (SMILES): CCCCCCCCCCCCCCCCOCCCOP(=O)(O)CO[C@H](CO)Cn1ccc(N)nc1=O [Brincidofovir]
- concentration at 2 h ([1]; both sexes, Sprague-Dawley CD, rat, in vivo, 1 mg/kg, Day 1, 1 mg/kg, combined male and female, Mean, read-out: Clast): 209 ng/mL
- concentration at 8 hr ([1]; both sexes, Sprague-Dawley CD, rat, in vivo, 4 mg/kg, Day 29, 4 mg/kg, combined male and female rats, mean, read-out: Clast): 2.06 ng/mL
- concentration at 8 h ([1]; both sexes, Sprague-Dawley CD, rat, in vivo, 4 mg/kg, Day 1, 4 mg/kg, combined male and female, Mean, read-out: Clast): 2.2 ng/mL
- concentration at 8 h ([1]; both sexes, Sprague-Dawley CD, rat, in vivo, 4 mg/kg, Day 1, 4 mg/kg, combined male and female, Median, read-out: Clast): 2.31 ng/mL
- concentration at 8 hr ([1]; both sexes, Sprague-Dawley CD, rat, in vivo, 15 mg/kg, Day 29, 15 mg/kg, combined male and female rats, mean, read-out: Clast): 10.9 ng/mL
- concentration at 8 h ([1]; both sexes, Sprague-Dawley CD, rat, in vivo, 15 mg/kg, Day 1, 15 mg/kg, combined male and female, Mean, read-out: Clast): 9.68 ng/mL
- concentration at 8 h ([1]; both sexes, Sprague-Dawley CD, rat, in vivo, 15 mg/kg, Day 1, 15 mg/kg, combined male and female, Median, read-out: Clast): 10.3 ng/mL
- AUC(0-t) ([1]; both sexes, Sprague-Dawley CD, rat, in vivo, 1 mg/kg, Day 29, 1 mg/kg, combined male and female rats, mean, calculated using only 2 quantifiable data points): 410 ng·h/mL
- Cmax ([1]; both sexes, Sprague-Dawley CD, rat, in vivo, 1 mg/kg, Day 1, 1 mg/kg, combined male and female, Mean): 219 ng/mL
- AUC(0-t) ([1]; both sexes, Sprague-Dawley CD, rat, in vivo, 1 mg/kg, Day 1, 1 mg/kg, combined male and female, Mean, only 2 quantifiable data points): 319 ng·h/mL
- Cmax ([1]; both sexes, Sprague-Dawley CD, rat, in vivo, 1 mg/kg, Day 1, 1 mg/kg, combined male and female, Median): 210 ng/mL
- AUC(0-t) ([1]; both sexes, Sprague-Dawley CD, rat, in vivo, 1 mg/kg, Day 1, 1 mg/kg, combined male and female, Median, only 2 quantifiable data points): 305 ng·h/mL
- AUC(0-t) ([1]; both sexes, Sprague-Dawley CD, rat, in vivo, 4 mg/kg, Day 29, 4 mg/kg, combined male and female rats, mean): 2760 ng·h/mL
- AUC(0-t) [1, 3]: 2220 ng·h/mL
- Cmax [1, 3]: 1010 ng/mL
- AUC(0-t) [1, 4]: 2320 ng·h/mL
- Cmax [1, 4]: 1000 ng/mL
- AUC(0-t) ([1]; both sexes, Sprague-Dawley CD, rat, in vivo, 15 mg/kg, Day 29, 15 mg/kg, combined male and female rats, mean): 9890 ng·h/mL
- AUC(0-t) [1, 5]: 8820 ng·h/mL
- Cmax [1, 5]: 3800 ng/mL
- AUC(0-t) [1, 6]: 8780 ng·h/mL
- Cmax [1, 6]: 3760 ng/mL
- AUClast/Dose [1, 7]: 410 (hr*ng/mL)/(mg/kg)
- Cmax/Dose [1, 7]: 298 kg·ng/mL/mg
- Tlast ([1]; Day 29, 1 mg/kg, combined male and female rats, median): 2.00 h
- AUClast/Dose [1, 8]: 690 (hr*ng/mL)/(mg/kg)
- Cmax/Dose [1, 8]: 301 kg·ng/mL/mg
- Tlast ([1]; Day 29, 4 mg/kg, combined male and female rats, median): 8.00 h
- AUClast/Dose [1, 9]: 660 (hr*ng/mL)/(mg/kg)
- Cmax/Dose [1, 9]: 300 kg·ng/mL/mg
- Tlast ([1]; Day 29, 15 mg/kg, combined male and female rats, median): 8.00 h
- Cmax/Dose ([1]; Day 1, 1 mg/kg, combined male and female, Mean): 219 kg·ng/mL/mg
- AUClast/Dose ([1]; Day 1, 1 mg/kg, combined male and female, Mean, only 2 quantifiable data points): 319 (hr*ng/mL)/(mg/kg)
- Clast [1, 10]: 206 ng/mL
- Cmax/Dose [1, 10]: 210 kg·ng/mL/mg
- Tlast [1, 10]: 2.00 h
- AUClast/Dose ([1]; Day 1, 1 mg/kg, combined male and female, Median, only 2 quantifiable data points): 305 (hr*ng/mL)/(mg/kg)
- AUClast/Dose [1, 11]: 554 (hr*ng/mL)/(mg/kg)
- Cmax/Dose [1, 11]: 252 kg·ng/mL/mg
- AUClast/Dose [1, 12]: 579 (hr*ng/mL)/(mg/kg)
- Cmax/Dose [1, 12]: 250 kg·ng/mL/mg
- Tlast [1, 12]: 8.00 h
- AUClast/Dose [1, 13]: 588 (hr*ng/mL)/(mg/kg)
- Cmax/Dose [1, 13]: 254 kg·ng/mL/mg
- AUClast/Dose [1, 14]: 585 (hr*ng/mL)/(mg/kg)
- Cmax/Dose [1, 14]: 251 kg·ng/mL/mg
- Tlast [1, 14]: 8.00 h
- Drug-Related AEs: Decreased appetite (number of subjects) [2, 15]: 0
- Drug-Related AEs: Diarrhea (number of subjects) [2, 15]: 0
- Drug-Related AEs: Elevated liver transaminases (number of subjects) [2, 15]: 0
- Drug-Related AEs: Headache (number of subjects) [2, 15]: 0
- Drug-Related AEs: Nausea (number of subjects) [2, 15]: 0
- Drug-Related AEs: Pain, phlebitis at infusion site (number of subjects) [2, 15]: 0
- Grade 3 or 4 Drug-Related AEs: Decreased appetite (number of subjects) [2, 15]: 0
- Grade 3 or 4 Drug-Related AEs: Diarrhea (number of subjects) [2, 15]: 0
- Grade 3 or 4 Drug-Related AEs: Elevated liver transaminases (number of subjects) [2, 15]: 0
- Grade 3 or 4 Drug-Related AEs: Headache (number of subjects) [2, 15]: 0
- Grade 3 or 4 Drug-Related AEs: Nausea (number of subjects) [2, 15]: 0
- Grade 3 or 4 Drug-Related AEs: Pain, phlebitis at infusion site (number of subjects) [2, 15]: 0
- Drug-Related AEs: Decreased appetite (number of subjects) [2, 16]: 0
- Drug-Related AEs: Diarrhea (number of subjects) [2, 16]: 0
- Drug-Related AEs: Elevated liver transaminases (number of subjects) [2, 16]: 0
- Drug-Related AEs: Headache (number of subjects) [2, 16]: 0
- Drug-Related AEs: Nausea (number of subjects) [2, 16]: 0
- Drug-Related AEs: Pain, phlebitis at infusion site (number of subjects) [2, 16]: 0
- Grade 3 or 4 Drug-Related AEs: Decreased appetite (number of subjects) [2, 16]: 0
- Grade 3 or 4 Drug-Related AEs: Diarrhea (number of subjects) [2, 16]: 0
- Grade 3 or 4 Drug-Related AEs: Elevated liver transaminases (number of subjects) [2, 16]: 0
- Grade 3 or 4 Drug-Related AEs: Headache (number of subjects) [2, 16]: 0
- Grade 3 or 4 Drug-Related AEs: Nausea (number of subjects) [2, 16]: 0
- Grade 3 or 4 Drug-Related AEs: Pain, phlebitis at infusion site (number of subjects) [2, 16]: 0
- Drug-Related AEs: Decreased appetite (number of subjects) [2, 17]: 0
- Drug-Related AEs: Diarrhea (% of subjects) [2, 17]: (11%)
- Drug-Related AEs: Diarrhea (number of subjects) [2, 17]: 1
- Drug-Related AEs: Elevated liver transaminases (number of subjects) [2, 17]: 0
- Drug-Related AEs: Headache (% of subjects) [2, 17]: (22%)
- Drug-Related AEs: Headache (number of subjects) [2, 17]: 2
- Drug-Related AEs: Nausea (number of subjects) [2, 17]: 0
- Drug-Related AEs: Pain, phlebitis at infusion site (% of subjects) [2, 17]: (11%)
- Drug-Related AEs: Pain, phlebitis at infusion site (number of subjects) [2, 17]: 1
- Grade 3 or 4 Drug-Related AEs: Decreased appetite (number of subjects) [2, 17]: 0
- Grade 3 or 4 Drug-Related AEs: Diarrhea (number of subjects) [2, 17]: 0
- Grade 3 or 4 Drug-Related AEs: Elevated liver transaminases (number of subjects) [2, 17]: 0
- Grade 3 or 4 Drug-Related AEs: Headache (number of subjects) [2, 17]: 0
- Grade 3 or 4 Drug-Related AEs: Nausea (number of subjects) [2, 17]: 0
- Grade 3 or 4 Drug-Related AEs: Pain, phlebitis at infusion site (number of subjects) [2, 17]: 0
- Drug-Related AEs: Decreased appetite (% of subjects) [2, 18]: (11%)
- Drug-Related AEs: Decreased appetite (number of subjects) [2, 18]: 1
- Drug-Related AEs: Diarrhea (% of subjects) [2, 18]: (33%)
- Drug-Related AEs: Diarrhea (number of subjects) [2, 18]: 3
- Drug-Related AEs: Elevated liver transaminases (% of subjects) [2, 18]: (11%)
- Drug-Related AEs: Elevated liver transaminases (number of subjects) [2, 18]: 1
- Drug-Related AEs: Headache (% of subjects) [2, 18]: (22%)
- Drug-Related AEs: Headache (number of subjects) [2, 18]: 2
- Drug-Related AEs: Nausea (% of subjects) [2, 18]: (22%)
- Drug-Related AEs: Nausea (number of subjects) [2, 18]: 2
- Drug-Related AEs: Pain, phlebitis at infusion site (number of subjects) [2, 18]: 0
- Grade 3 or 4 Drug-Related AEs: Decreased appetite (number of subjects) [2, 18]: 0
- Grade 3 or 4 Drug-Related AEs: Diarrhea (number of subjects) [2, 18]: 0
- Grade 3 or 4 Drug-Related AEs: Elevated liver transaminases (% of subjects) [2, 18]: (11%)
- Grade 3 or 4 Drug-Related AEs: Elevated liver transaminases (number of subjects) [2, 18]: 1
- Grade 3 or 4 Drug-Related AEs: Headache (number of subjects) [2, 18]: 0
- Grade 3 or 4 Drug-Related AEs: Nausea (number of subjects) [2, 18]: 0
- Grade 3 or 4 Drug-Related AEs: Pain, phlebitis at infusion site (number of subjects) [2, 18]: 0
- Adverse events ([2]; IV 10 mg and 25 mg): No drug related adverse events
- Safety and tolerability ([2]; IV 10 mg and 25 mg): generally safe and well-tolerated
- Bilirubin ([2]; any cohort): No Grade 2 or higher bilirubin
- ALT elevations ([2]; cohort 4): transient grade 2-3 ALT elevations
- Serious adverse events ([2]; human, in vivo): no serious adverse events occurred
- Tolerability ([2]; single doses 10-50 mg, 2h IV infusion): well tolerated
- ALT elevations ([2]; therapeutic IV exposures (cohorts 1 and 2)): no grade 2 or higher ALT elevations were observed
